In patent US10202361B2, “Pyridazinones as herbicides” (E I DU PONT DE NEMOURS AND COMPANY, priority 2014, dated 2019):
Like-named read-outs stand apart in the source and are kept apart here.

Experiments:
Experiment in all cases: Test C pre-/postemergence greenhouse herbicide test
Format in all cases: in vivo
[1] = test system: johnsongrass (Sorghum halepense); conditions: Sorghum halepense, Johnsongrass, read-out: Plant response rating; for pest or weed control at 31 g/ha: 31 g ai/ha; for pest or weed control at 62 g/ha: 62 g ai/ha; for pest or weed control at 125 g/ha: 125 g ai/ha; for pest or weed control at 250 g/ha: 250 g ai/ha
Procedure, shortened: (§1)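 Visual ratings, 0 = no effect, 100 = complete control, vs untreated controls at 13–15 d. Pre: seeds in loam/sand. Post: 2–18 cm plants (1–4 leaf), peat/vermiculite mix. Surfactant-containing solvent formulation; greenhouse.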

[2] = test system: oat, wild (wild oat, Avena fatua); conditions: Postemergence
Procedure, shortened: as §1

[3] = test system: barnyardgrass (Echinochloa crus-galli); conditions: Barnyardgrass
Procedure, shortened: as §1

soybean (Glycine max) = conditions: Glycine max, Soybean, read-out: Plant response rating; for plant injury at 62 g/ha: 62 g ai/ha; for plant injury at 125 g/ha: 125 g ai/ha; for plant injury at 250 g/ha: 250 g ai/ha
Procedure, shortened: as §1

[4] = test system: galium (catchweed bedstraw, Galium aparine); conditions: Galium, read-out: Plant response rating; for pest or weed control at 62 g/ha: 62 g ai/ha; for pest or weed control at 125 g/ha: 125 g ai/ha; for pest or weed control at 250 g/ha: 250 g ai/ha
Procedure, shortened: as §1

[5] = test system: nutsedge, yellow (yellow nutsedge, Cyperus esculentus); conditions: Cyperus, Nutsedge, Yellow, read-out: Plant response rating; for pest or weed control at 31 g/ha: 31 g ai/ha; for pest or weed control at 62 g/ha: 62 g ai/ha; for pest or weed control at 125 g/ha: 125 g ai/ha
Procedure, shortened: as §1

[6] = test system: morningglory (Ipomoea coccinea); conditions: Morningglory
Procedure, shortened: as §1

[7] = test system: waterhemp (common waterhemp, Amaranthus rudis); conditions: Waterhemp
Procedure, shortened: as §1

corn (Zea mays) = conditions: Zea mays, Corn, read-out: Plant response rating; for plant injury at 62 g/ha: 62 g ai/ha; for plant injury at 125 g/ha: 125 g ai/ha; for plant injury at 250 g/ha: 250 g ai/ha
Procedure, shortened: as §1

[8] = test system: wheat (winter wheat, Triticum aestivum); conditions: Triticum aestivum, Wheat, read-out: Plant response rating; for plant injury at 62 g/ha: 62 g ai/ha; for plant injury at 125 g/ha: 125 g ai/ha; for plant injury at 250 g/ha: 250 g ai/ha
Procedure, shortened: as §1

kochia (Kochia scoparia) = conditions: Postemergence
Procedure, shortened: as §1

[9] = test system: lambsquarters (Chenopodium album)
Procedure, shortened: as §1

[10] = test system: pigweed (Amaranthus retroflexus); conditions: Amaranthus retroflexus, Pigweed, read-out: Plant response rating; for pest or weed control at 62 g/ha: 62 g ai/ha; for pest or weed control at 125 g/ha: 125 g ai/ha; for pest or weed control at 250 g/ha: 250 g ai/ha
Procedure, shortened: as §1

[11] = post-emergence, Postemergence, 31 g ai/ha
[12] = pre-emergence, Preemergence, 31 g ai/ha

Cc1cc(=O)n(-c2ccc(C(F)(F)F)cc2)nc1Cc1ccnc(C(F)(F)F)c1 [Compound 2, 5-methyl-2-[4-(trifluoromethyl)phenyl]-6-[[2-(trifluoromethyl)-4-pyridinyl]methyl]-3(2H)-pyridazinone]
pest or weed control at 31 g/ha ([1]; post-emergence, Postemergence): 5% | pest or weed control at 62 g/ha ([1]; post-emergence, Postemergence): 5% | pest or weed control at 125 g/ha ([1]; post-emergence, Postemergence): 10% | pest or weed control at 250 g/ha ([1]; post-emergence, Postemergence): 10% | pest or weed control at 31 g/ha ([1]; pre-emergence, Preemergence): 65% | pest or weed control at 62 g/ha ([1]; pre-emergence, Preemergence): 70% | pest or weed control at 125 g/ha ([1]; pre-emergence, Preemergence): 80% | pest or weed control at 250 g/ha ([1]; pre-emergence, Preemergence): 90% | Plant response rating ([2]; 31 g ai/ha): 5 | Plant response rating ([2]; 62 g ai/ha): 5 | Plant response rating ([2]; 125 g ai/ha): 5 | Plant response rating ([2]; 250 g ai/ha): 5 | Plant response rating ([3]; Postemergence, 31 g ai/ha): 5 | Plant response rating ([3]; Postemergence, 62 g ai/ha): 10 | Plant response rating ([3]; Postemergence, 125 g ai/ha): 10 | Plant response rating ([3]; Postemergence, 250 g ai/ha): 25 | Plant response rating ([3]; Preemergence, 31 g ai/ha): 65 | Plant response rating ([3]; Preemergence, 62 g ai/ha): 70 | Plant response rating ([3]; Preemergence, 125 g ai/ha): 90 | Plant response rating ([3]; Preemergence, 250 g ai/ha): 98 | plant injury at 31 g/ha (soybean (Glycine max); [11]): 20% | plant injury at 62 g/ha (soybean (Glycine max); post-emergence, Postemergence): 30% | plant injury at 125 g/ha (soybean (Glycine max); post-emergence, Postemergence): 40% | plant injury at 250 g/ha (soybean (Glycine max); post-emergence, Postemergence): 40% | plant injury at 62 g/ha (soybean (Glycine max); pre-emergence, Preemergence): 25% | plant injury at 125 g/ha (soybean (Glycine max); pre-emergence, Preemergence): 55% | plant injury at 250 g/ha (soybean (Glycine max); pre-emergence, Preemergence): 60% | pest or weed control at 31 g/ha [4, 11]: 50% | pest or weed control at 62 g/ha ([4]; post-emergence, Postemergence): 80% | pest or weed control at 125 g/ha ([4]; post-emergence, Postemergence): 80% | pest or weed control at 250 g/ha ([4]; post-emergence, Postemergence): 85% | pest or weed control at 62 g/ha ([4]; pre-emergence, Preemergence): 85% | pest or weed control at 125 g/ha ([4]; pre-emergence, Preemergence): 98% | pest or weed control at 250 g/ha ([4]; pre-emergence, Preemergence): 100% | pest or weed control at 31 g/ha ([5]; post-emergence, Postemergence): 5% | pest or weed control at 62 g/ha ([5]; post-emergence, Postemergence): 5% | pest or weed control at 125 g/ha ([5]; post-emergence, Postemergence): 5% | pest or weed control at 250 g/ha ([5]; post-emergence, Postemergence, 250 g ai/ha): 10% | pest or weed control at 31 g/ha ([5]; pre-emergence, Preemergence): 10% | pest or weed control at 62 g/ha ([5]; pre-emergence, Preemergence): 25% | pest or weed control at 125 g/ha ([5]; pre-emergence, Preemergence): 35% | Plant response rating ([6]; Postemergence, 31 g ai/ha): 10 | Plant response rating ([6]; Postemergence, 125 g ai/ha): 15 | Plant response rating ([6]; Postemergence, 250 g ai/ha): 15 | Plant response rating ([6]; Preemergence, 31 g ai/ha): 55 | Plant response rating ([6]; Preemergence, 62 g ai/ha): 65 | Plant response rating ([6]; Preemergence, 125 g ai/ha): 85 | Plant response rating ([6]; Preemergence, 250 g ai/ha): 100 | Plant response rating ([7]; Postemergence, 31 g ai/ha): 75 | Plant response rating ([7]; Postemergence, 62 g ai/ha): 75 | Plant response rating ([7]; Postemergence, 125 g ai/ha): 75 | Plant response rating ([7]; Postemergence, 250 g ai/ha): 80 | Plant response rating ([7]; Preemergence, 62 g ai/ha): 100 | Plant response rating ([7]; Preemergence, 125 g ai/ha): 100 | Plant response rating ([7]; Preemergence, 250 g ai/ha): 100 | plant injury at 62 g/ha (corn (Zea mays); post-emergence, Postemergence): 20% | plant injury at 125 g/ha (corn (Zea mays); post-emergence, Postemergence): 20% | plant injury at 250 g/ha (corn (Zea mays); post-emergence, Postemergence): 20% | plant injury at 31 g/ha (corn (Zea mays); [12]): 35% | plant injury at 62 g/ha (corn (Zea mays); pre-emergence, Preemergence): 55% | plant injury at 125 g/ha (corn (Zea mays); pre-emergence, Preemergence): 75% | plant injury at 250 g/ha (corn (Zea mays); pre-emergence, Preemergence): 75% | plant injury at 31 g/ha [8, 11]: 5% | plant injury at 62 g/ha ([8]; post-emergence, Postemergence): 5% | plant injury at 125 g/ha ([8]; post-emergence, Postemergence): 5% | plant injury at 250 g/ha ([8]; post-emergence, Postemergence): 5% | plant injury at 62 g/ha ([8]; pre-emergence, Preemergence): 0% | plant injury at 125 g/ha ([8]; pre-emergence, Preemergence): 10% | plant injury at 250 g/ha ([8]; pre-emergence, Preemergence): 30% | Plant response rating (kochia (Kochia scoparia); 31 g ai/ha): 80 | Plant response rating (kochia (Kochia scoparia); 62 g ai/ha): 85 | Plant response rating (kochia (Kochia scoparia); 125 g ai/ha): 90 | Plant response rating (kochia (Kochia scoparia); 250 g ai/ha): 90 | Plant response rating ([9]; Postemergence, 31 g ai/ha): 55 | Plant response rating ([9]; Postemergence, 62 g ai/ha): 70 | Plant response rating ([9]; Postemergence, 125 g ai/ha): 75 | Plant response rating ([9]; Postemergence, 250 g ai/ha): 80 | Plant response rating ([9]; Preemergence, 31 g ai/ha): 100 | Plant response rating ([9]; Preemergence, 62 g ai/ha): 100 | Plant response rating ([9]; Preemergence, 125 g ai/ha): 100 | Plant response rating ([9]; Preemergence, 250 g ai/ha): 100 | pest or weed control at 62 g/ha ([10]; post-emergence, Postemergence): 55% | pest or weed control at 125 g/ha ([10]; post-emergence, Postemergence): 60% | pest or weed control at 250 g/ha ([10]; post-emergence, Postemergence): 60% | pest or weed control at 31 g/ha [10, 12]: 100% | pest or weed control at 62 g/ha ([10]; pre-emergence, Preemergence): 100% | pest or weed control at 125 g/ha ([10]; pre-emergence, Preemergence): 100% | pest or weed control at 250 g/ha ([10]; pre-emergence, Preemergence): 100%
